In patent US10947273B2, “Peptides of use in the preventive and curative treatment of alopecia” (Institut Europeen de Biologie Cellulaire, priority 2015, dated 2021):
“Also recorded” adds a separate entry of the source. The star is where a group is joined. Palmitoyl = CCCCCCCCCCCCCCCC(=O)*

Assays:
follicular markers = assay: Follicular markers in isolated hair ex vivo (immunolabeling); assay type: cell-based, human; details: end of treatment D11 or D12, value = marker increased
Description: (§1) This study was carried out on microdissected hairs from scalp surgery specimens from women aged 52 to 71 years. Isolated hairs were kept alive for 11 to 12 days in Williams medium, under conventional cell culture conditions (37° C., 5% CO2). […]
(§2) To evaluate the effect of (1), (6) or (9) on hair growth, the hairs were photographed and their lengths measured using image analysis software. Thus, the growth of the hairs between D0 and D11/D12 could be calculated and compared with that of the untreated control. At the end of the treatments (D11 or D12), the hairs were collected and frozen or fixed for immunolabeling and histological staining.

[1] = tested on: immortalized human skin keratinocytes (HaCaT); assay: CellTiter-Blue proliferation of HaCaT; assay type: cell-based; details: 10^−5M, 72 hours
Description: Cell proliferation and viability were evaluated in vitro with a kit from Promega, CellTiter-Blue® Cell Viability Assay, for estimating the number of living cells present in the culture. This kit is based on detection, by measurement of fluorescence, of conversion of the dye, resazurin, into a fluorescent product (resorufin) by living and thus metabolically active cells.
The effect of the peptides tested, (1) and (9), at 4 different concentrations (10^−5, 10^−7, 10^−9 and 10^−11M) was examined on five cell types: immortalized human skin keratinocytes (HaCaT), human hair follicular keratinocytes (HHFK), normal human dermal fibroblasts (NHDF), hair follicle dermal papilla cells (HFDPC), and normal human epidermal melanocytes (NHEM) exposed to the molecule studied for 72 hours.

VEGF [2] = assay: VEGF secretion by HFDPC (ELISA/BioPlex); assay type: cell-based, human; details: 48h
Description: (§3) NHDF, HFDPC, HHFK and NHEM cells were treated with the peptides studied for 48h. At the end of the treatment, cell supernatants were collected and stored at −80° C. until analysis. The factors of interest secreted into the supernatant were assayed by ELISA® (R&D) or BioPlex® (BioRad®).
(§4) The results are expressed as percent increase in the concentration of the factor present in the supernatant relative to the untreated control. The intensity of the effect varies as a function of the concentration of the peptide studied and of the cell type treated.

[3] = tested on: genes whose expression is reduced in subjects characterized by alopecia; assay: qPCR (TLDA) overall statement, genes involved in alopecia, HFDPC; assay type: cell-based, human; details: summary of Table 1
Description: (§5) To study the effect of 9 peptides on these genes, HFDPC were treated for 24 hours with the molecules tested at 10^−7M and 10^−9M concentrations.
(§6) RNA was extracted and purified from cell pellets using the RNA XS Kit (Macherey-Nagel). RNA quantification was carried out with a NanoDrop device and sample quality was verified on a Bioanalyzer with RNA 6000 Nano chips (Agilent). cDNA was synthesized from 300 ng of RNA using the High-Capacity cDNA Reverse Transcription Kit (LifeTech). Quality-control qPCR assays of the cDNA were carried out in microplates on the reference gene, GAPDH, and the SIRT1 gene.
(§7) Final qPCR experiments were carried out in a 1 μl volume on microfluidic cards (TaqMan Low Density Arrays, LifeTech) and the ABI 7900HT qPCR device. Amplification reactions were performed in duplicate using 1 to 2 ng of cDNA per qPCR reaction and TaqMan Universal Master Mix II (LifeTech).
(§8) Ct values were obtained using the RQ Manager software. For analyses of qPCR results, Ct values were limited to 35 cycles and the duplicate assays are averaged. The GeneXPro software was used for the studies of stability and of selection of the best reference genes. Expression variations are calculated by the relative quantification method and are expressed as percent increase in expression of the gene of interest relative to the untreated controls.

BMP2 [4] = assay: qPCR (TLDA) BMP2 gene expression in HFDPC; assay type: cell-based, human; details: peptide 10^−7, 24 hours, relative to untreated controls
Description: as §5, §6, §7, §8

[5] = tested on: microdissected hairs from scalp surgery specimens; assay: Growth of isolated hair ex vivo; assay type: cell-based, human; details: for Growth at D 11/D 12 Vs Control: ex vivo isolated hair
Description: as §1, §2

PDGF [6] = assay: PDGF secretion by HFDPC (ELISA/BioPlex); assay type: cell-based, human; details: 48h
Description: as §3, §4

IGF1 = assay: qPCR (TLDA) IGF1 gene expression in HFDPC; assay type: cell-based, human; details: relative to untreated controls
Description: as §5, §6, §7, §8

NGF = NGF secretion by NHDF (ELISA/BioPlex); assay type: cell-based, human; details: 48h
Description: as §3, §4

VEGF [7] = assay: VEGF secretion by NHDF (ELISA/BioPlex); assay type: cell-based, human; details: 48h
Description: as §3, §4

BMP2 [8] = assay: BMP2 secretion by HFDPC (ELISA/BioPlex); assay type: cell-based, human; details: 10^−9 M, 48h
Description: as §3, §4

KGF [9] = assay: KGF secretion by HFDPC (ELISA/BioPlex); assay type: cell-based, human; details: 48h
Description: as §3, §4

HGF [10] = assay: HGF secretion by NHDF (ELISA/BioPlex); assay type: cell-based, human; details: 48h
Description: as §3, §4

KGF [11] = assay: qPCR (TLDA) KGF gene expression in HFDPC; assay type: cell-based, human; set-up: dose or concentration left out as unconfirmed; details: peptide, 24 hours, relative to untreated controls
Description: as §6, §7, §8

VEGF [12] = assay: VEGF secretion by NHEM (ELISA/BioPlex); assay type: cell-based, human; details: 10^−7 M, 48h
Description: as §3, §4

VEGF [13] = assay: qPCR (TLDA) VEGF gene expression in HFDPC; assay type: cell-based, human; details: peptide 10^−5 M (table title), 24 hours, relative to untreated controls
Description: as §6, §7, §8

HGF [14] = assay: HGF secretion by NHEM (ELISA/BioPlex); assay type: cell-based, human; details: 10^−7 M, 48h
Description: as §3, §4

HGF [15] = assay: HGF secretion by HHFK (ELISA/BioPlex); assay type: cell-based, human; details: 10^−7 M, 48h
Description: as §3, §4

SCF [16] = assay: SCF secretion by NHDF (ELISA/BioPlex); assay type: cell-based, human; details: 48h
Description: as §3, §4

SCF [17] = assay: SCF secretion by HHFK (ELISA/BioPlex); assay type: cell-based, human; details: 10^−7 M, 48h
Description: as §3, §4

PDGF [18] = assay: qPCR (TLDA) PDGF gene expression in HFDPC; assay type: cell-based, human; set-up: dose or concentration left out as unconfirmed; details: peptide, 24 hours, relative to untreated controls
Description: as §6, §7, §8

HGF [19] = assay: HGF secretion by HFDPC (ELISA/BioPlex); assay type: cell-based, human; details: 48h
Description: as §3, §4

Substance	Follicular markers increased Vs Control (follicular markers; 10^−9 M)	stimulation of genes whose expression is reduced in alopecia (in words) [3]	Growth at D 11/D 12 Vs Control ([5]; 10^−9 M)	PDGF secretion, percent increase relative to untreated control (PDGF [6]; 10^−7 M)	% stimulation IGF1 gene expression (IGF1; peptide 10^−7, 24 hours)	% stimulation KGF gene expression (KGF [11]) [%]	PDGF secretion, percent increase relative to untreated control (PDGF [6]; 10^−5 M)	% stimulation IGF1 gene expression (IGF1; peptide 10^−9, 24 hours)	% stimulation VEGF gene expression (VEGF [13]) [%]	VEGF secretion, percent increase relative to untreated control (VEGF [7]; 10^−5 M)	HGF secretion, percent increase relative to untreated control (HGF [10]; 10^−7 M)	HGF secretion, percent increase relative to untreated control (HGF [15])	SCF secretion, percent increase relative to untreated control (SCF [16]; 10^−7 M)	% stimulation PDGF gene expression (PDGF [18]) [%]	other results
H-Ala-Arg-Pro-Ala-Lys-OH (H-ARPAK-OH) [Peptide (1)]	Coll IV and CD34	stimulate several genes	+40%	PDGF 31%	32% (10^−7)	14	–	–	–	–	–	–	–	–	Follicular markers increased Vs Control (follicular markers; 10^−1 M): Coll IV; also recorded: Laminin-5; stimulation of proliferation of HaCaT [1]: +15%; VEGF secretion, percent increase relative to untreated control (VEGF [2]; 10^−7 M): VEGF 9%; VEGF secretion, percent increase relative to untreated control (VEGF [2]; 10^−9 M): VEGF 4%; % stimulation BMP2 gene expression (BMP2 [4]): 26% (10^−7); Growth at D 11/D 12 Vs Control ([5]; 10^−1 M): No effect; growth increase compared with minoxidil sulphate ([5]; peptide 10^−9M, minoxidil sulphate 10^−5 M): close to that obtained after treatment with minoxidil sulphate; hair growth after 11 to 12 days of treatment ex vivo (in words) ([5]; summary of Table 3): stimulate hair growth; PDGF secretion, percent increase relative to untreated control (PDGF [6]; 10^−9 M): PDGF 23%; NGF secretion, percent increase relative to untreated control (NGF; 10^−9 M): NGF 13%; VEGF secretion, percent increase relative to untreated control (VEGF [7]; 10^−7 M): VEGF 4%; VEGF secretion, percent increase relative to untreated control (VEGF [7]; 10^−9 M): VEGF5%; BMP2 secretion, percent increase relative to untreated control (BMP2 [8]): BMP2 22%; KGF secretion, percent increase relative to untreated control (KGF [9]; 10^−7 M): KGF 8%; KGF secretion, percent increase relative to untreated control (KGF [9]; 10^−9 M): KGF 25%; HGF secretion, percent increase relative to untreated control (HGF [10]; 10^−9 M): HGF 18%
Palm-Ala-Arg-Ala-Ala-Lys-NH2 (Palmitoyl-ARAAK-NH2; SMILES CCCCCCCCCCCCCCCC(=O)N[C@@H](C)C(=O)N[C@@H](CCCNC(=N)N)C(=O)N[C@@H](C)C(=O)N[C@@H](C)C(=O)N[C@@H](CCCCN)C(N)=O) [(5)]	–	stimulate several genes	–	PDGF 55%	29% (10^−7)	–	PDGF 39%	16% (10^−9)	10	VEGF 12%	HGF 21%	HGF 104%	–	–	VEGF secretion, percent increase relative to untreated control (VEGF [12]): VEGF 5%; NGF secretion, percent increase relative to untreated control (NGF; 10^−5 M): NGF 15%; HGF secretion, percent increase relative to untreated control (HGF [14]): HGF 8%
Palm-Arg-Pro-Ala-Lys-OH (Palmitoyl-RPAK-OH; SMILES CCCCCCCCCCCCCCCC(=O)N[C@@H](CCCNC(=N)N)C(=O)N1CCC[C@H]1C(=O)N[C@@H](C)C(=O)N[C@@H](CCCCN)C(=O)O) [Peptide (9)]	CK15	stimulate several genes	+5%	PDGF 117%	–	156	PDGF 62%	–	93	VEGF 24%	–	HGF 94%	SCF 8%	304	Follicular markers increased Vs Control (follicular markers; 10^−7 M): CK15; SCF secretion, percent increase relative to untreated control (SCF [17]): SCF 11%; VEGF secretion, percent increase relative to untreated control (VEGF [2]; 10^−5 M): VEGF 10%; Growth at D 11/D 12 Vs Control ([5]; 10^−7 M): No effect
Palm-Ala-Arg-Pro-Ala-Lys-OH (Palmitoyl-ARPAK-OH; SMILES CCCCCCCCCCCCCCCC(=O)N[C@@H](C)C(=O)N[C@@H](CCCNC(=N)N)C(=O)N1CCC[C@H]1C(=O)N[C@@H](C)C(=O)N[C@@H](CCCCN)C(=O)O) [(2)]	–	stimulate several genes	–	–	–	71	–	136% (10^−9)	11	–	HGF 13%	HGF 28%	SCF 37%	29	SCF secretion, percent increase relative to untreated control (SCF [16]; 10^−5 M): SCF 24%; HGF secretion, percent increase relative to untreated control (HGF [19]; 10^−5 M): HGF 403%; HGF secretion, percent increase relative to untreated control (HGF [19]; 10^−7 M): HGF 565%
